# From patent publication US5380714A, “2-furyl-triazalo [1,5-a]-[1,3,5]triazines and pyrazolo [2,3-a][1,3,5]triazines” (Imperial Chemical Industries PLC, priority 1991, dated 1995)
# Molecular target: T1, A2 Adenosine receptor (Rattus norvegicus, UniProt P30543)
# T1 construct: membrane preparations derived from the rat phaeochromocytoma cell line PC 12; host or cells: PC 12 (rat phaeochromocytoma)
# Assay: A2 Adenosine receptor affinity test: displacement of [3H]-NECA from PC 12 cell membranes
# Type: binding
# Source text: (a) A2 Adenosine receptor affinity test This test involves the ability of a test adenosine antagonist to displace the known adenosine mimetic agent [^3 H]-N-ethylcarboxamidoadenosine (NECA) from binding sites on membrane preparations derived from the rat phaeochromocytoma cell line PC 12 (available from the Beatson Institute, Glasgow). […] The membrane preparation is obtained as follows: Frozen pellets of PC12 cells are washed twice with ice cold, buffered, physiological saline and the cells recovered by centrifugation (1500 G) at 3° C. The separated cells are then suspended in hypotonic solution (distilled water), allowed to stand on ice for 30 minutes and are then carefully homogenized using a standard high-speed homogeniser with periodic ice-cooling to obtain a fine suspension. […] A1280). The mixture is then incubated at 37° C. After 20 minutes, the reaction is terminated by dilution with ice-cold buffer and transfer onto ice. The material obtained containing the cell membranes is recovered by centrifugation and washed by resuspension in buffer and recentrifugation. The pellet produced is then resuspended in ice-cold buffer using a hand-driven homogenizer. The resultant membrane suspension is frozen and stored under liquid nitrogen until required. […] After incubation, the samples are rapidly filtered over glass-fibre mats and the filter mats are washed to remove non-receptor-bound radioligand. Receptor-bound radioligand entrapped on the filter mats is then determined by liquid scintillation counting. Filtration and washing are carried out using a conventional vacuum filtration cell harvester. The specific binding (defined as the difference between the total binding and the non-specific binding) in the presence of the particular test compound is determined and compared with the control value.
# [1] = read-out: displacement of control binding
# T1 sequence (P30543 whole entry): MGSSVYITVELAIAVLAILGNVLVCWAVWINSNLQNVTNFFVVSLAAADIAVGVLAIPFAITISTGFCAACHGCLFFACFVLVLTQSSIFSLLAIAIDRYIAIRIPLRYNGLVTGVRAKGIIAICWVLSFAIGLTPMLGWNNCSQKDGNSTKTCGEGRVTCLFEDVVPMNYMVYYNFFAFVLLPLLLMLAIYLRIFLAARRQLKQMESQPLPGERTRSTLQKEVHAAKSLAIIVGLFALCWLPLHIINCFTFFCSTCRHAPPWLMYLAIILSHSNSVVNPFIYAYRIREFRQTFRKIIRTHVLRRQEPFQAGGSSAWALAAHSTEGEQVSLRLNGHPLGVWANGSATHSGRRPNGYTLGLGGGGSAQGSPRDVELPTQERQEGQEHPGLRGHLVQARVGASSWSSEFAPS
smiles,measurement,setting,value
"CN(C)CCN(C)S(=O)(=O)c1ccc(CCNc2nc(N)n3nc(-c4ccco4)nc3n2)cc1 [Example 1, 7-Amino-2-(2-furyl)-5-[2-[(4-dimethylaminoethyl-N,methylsulphonamido)phenyl]ethyl]amino[1,2,4]-triazolo[1,5-a][1,3,5]-triazine]",IC50,"[3H]-NECA displacement, PC 12 membranes, inferred from displacement at 10^-5 M and 10^-7 M, read-out: pIC50 (indicated by % displacement values) (converted)",< 0.1 µM
same,inhibition at 0.1 µM,[1],77.7%
same,inhibition at 10 µM,[1],93.7%
